Data taken from ChEMBL document CHEMBL1144280, “Inhibitors of type I MetAPs containing pyridine-2-carboxylic acid thiazol-2-ylamide. Part 1: SAR studies on the determination of the key scaffold” (Bioorg Med Chem Lett, 2005).

Tests used:
[1] = molecular target: T1, Methionine aminopeptidase 1 (Saccharomyces cerevisiae S288c, UniProt Q01662); assay: Inhibitory concentration against Saccharomyces cerevisiae methionine aminopeptidase 1
T1 sequence (Q01662 whole entry): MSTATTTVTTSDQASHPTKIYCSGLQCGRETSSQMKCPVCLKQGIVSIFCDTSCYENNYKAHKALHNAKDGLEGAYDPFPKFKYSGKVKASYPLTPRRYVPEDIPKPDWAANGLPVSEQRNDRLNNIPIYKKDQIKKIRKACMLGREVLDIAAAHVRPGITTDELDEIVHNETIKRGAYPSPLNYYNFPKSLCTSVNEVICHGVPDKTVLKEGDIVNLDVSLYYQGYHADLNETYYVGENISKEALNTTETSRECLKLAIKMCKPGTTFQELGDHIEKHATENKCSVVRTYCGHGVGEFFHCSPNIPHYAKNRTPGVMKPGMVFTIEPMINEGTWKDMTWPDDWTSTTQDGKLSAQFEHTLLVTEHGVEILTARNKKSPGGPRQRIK

[2] = molecular target: T2, Methionine aminopeptidase (Escherichia coli K-12, UniProt P0AE18); assay: Inhibitory concentration against Escherichia coli methionine aminopeptidase 1
T2 sequence (P0AE18 whole entry): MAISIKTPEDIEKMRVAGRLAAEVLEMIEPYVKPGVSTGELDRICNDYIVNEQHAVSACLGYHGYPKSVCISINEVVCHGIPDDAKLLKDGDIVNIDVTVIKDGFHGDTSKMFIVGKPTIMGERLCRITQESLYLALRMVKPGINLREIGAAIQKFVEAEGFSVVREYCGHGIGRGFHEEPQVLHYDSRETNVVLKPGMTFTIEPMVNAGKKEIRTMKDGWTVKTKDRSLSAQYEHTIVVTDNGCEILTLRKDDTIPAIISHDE

| SMILES | IC50 [1] [µM] | IC50 [2] [µM] |
| --- | --- | --- |
| O=C(Nc1nccs1)c1cc([N+](=O)[O-])ccn1 | > 100 | 4.51 |
| CCCCc1ccc(C(=O)Nc2nccs2)nc1 | > 100 | > 100 |
| O=C(Nc1nccs1)c1cc(NCc2ccccc2)ccn1 | > 100 | 2.32 |
| O=C(Nc1nccs1)c1ncccc1OCc1ccccc1 | 0.77 | 1.41 |
| CC(C)=CCc1ccc(C(=O)Nc2nccs2)nc1 | > 100 | > 100 |
| O=C(Nc1nccs1)c1cccc(C(=O)Nc2nccs2)n1 | > 100 | > 100 |
| CC(C)(C)OC(=O)Nc1ccc(C(=O)Nc2nccs2)nc1 | 62.9 | 12.8 |
| CC(=O)OCc1cccc(C(=O)Nc2nccs2)n1 | – | > 100 |
| O=C(Nc1nccs1)c1cc(Cl)ccn1 | > 100 | > 100 |
| COc1ccnc(C(=O)Nc2nccs2)c1 | > 100 | – |
| O=C(Nc1nccs1)c1cc(OCc2ccccc2)ccn1 | > 100 | > 100 |
| CC(=O)Nc1ccnc(C(=O)Nc2nccs2)c1 | 17 | 1.98 |
| Nc1ccc(C(=O)Nc2nccs2)nc1 | 2.43 | 2.09 |
| Nc1ccnc(C(=O)Nc2nccs2)c1 | > 100 | 6.71 |
